Measurements published in patent US20060159617A1, “Small technetium-99m and rhenium labeled agents and methods for imaging tissues, organs and tumors” (priority 2002, published 2006).

Columns and labels:
[1] = biological target: α1 receptor; test: Alpha-1 receptor competition binding assay with [3H]-Prazosin; settings: apparent Ki, rat frontal cortex
Experimental: The in vitro α1 receptor binding affinities of rhenium coordinated complexes were determined in a competition assay using rat frontal cortex and high-affinity α1 ligand [^3H]-Prazosin (80 Ci/mmol, NEN Life Science Inc., Cambridge, Mass.). See, Eur. J. Nucl. Med. 2002, 29, 82-87.
The frontal cortex of rat brain was prepared as described above and store at −70° C. until used in the binding assays. Ten concentrations of the nonradioactive rhenium complexes ranging from 1×10^−10 to 1×10^−3 and protein samples (0.15 mg of membrane protein) were incubated with 1.5 nM [^3H]-Prazosin in a total volume of 0.25 mL of Tris-HCl (50 mM, pH 7.4, 10 mM MgSO4). Incubations were carried out for 60 min at 25° C. All assays were terminated by dilution with 5 mL of ice-cold Tris-HCl (10 mM), pH 7.4, and solution were filtered through glass-fiber filters (Whatman GF/F; presoaked in 0.5% polyethyleneimine for 30 min at 25° C.). Filters were then washed three times with 5 mL of ice-cold Tris-HCl (50 mM, pH 7.4), and counted in Hionic-Fluor cocktail (Packard, Groningen, the Netherlands). The corresponding IC50 values were determined with Origin 6.0 software (OriginLab, Northampton, Mass.) and were used for the calculation of the apparent Ki values with the Cheng-Prusoff equation. See, Biocheni. Pharmacol. 1973, 22, 3099-3108.

[2] = Determination of lipophilicity and pKa values by HPLC; format: physicochemical; settings: for k' (pH = 7.4): HPLC capacity factor at pH 7.4; for k' (Max): HPLC capacity factor, maximum; for pKa (Corrected): HPLC method, corrected with standard amines
Experimental: The lipophilicity and pKa values of all complexes were determined using HPLC methods described previously (Stylli, C.; Theobald, A. E. Determination of Ionization Constants of Radiopharmaceuticals in Mixed Solvents by HPLC. Appl. Radiat. Isot., 1987, 38, 701-708; Johannsen, B.; Scheunemann, M.; Spies, H.; Brust, P.; Wober, J.; Syhre, R.; Pietzsch, H.-J. Technetium(V) and Rhenium(V) Complexes for 5-HT2A Serotonin Receptor Binding: Structure-Affinity Considerations. Nucl. Med. Biol., 1996, 23, 429-438; and Johannsen, B.; Berger, R.; Brust, P.; Pietzsch, H.-J.; Scheunemann, M.; Seifert, S.; Spies, H.; Syhre, R. Structural Modification of Receptor-Binding Technetium-99m Complexes in Order to Improve Brain Uptake. Eur. J. Nucl. Med. 1997, 24, 316-319). […] The mobile phase was acetonitrile:phosphate buffer (0.01 M), 3:1, v/v, with the aqueous buffer adjusted to the desired pH between 3 and 11. The capacity factor (k′) was calculated for each determination (Braumann, T.; Grimme, L. H. Determination of Hydrophobic Parameters for Pyridazinone Herbicides by Liquid-Liquid Partition and Reversed-Phase High-Performance Liquid Chromatography. J. Chromatogr. 1981, 206, 7-15; El Tayer, N.; van der Waterbeemd, H.; Testa, B. Lipophilicity Measurements of Protonated Basic Compounds by Reversed-Phase High-Performance Liquid Chromatography. II. Procedure for the Determination of a Lipophilic Index Measured by Reversed-Phase High Performance Liquid Chromatography. J. Chromatogr. 1985, 320, 305-312; and Minick, D. J.; Frenz, J. H.; Patrick, M. A.; Brent, D. A. A Comprehensive Method for Determining Hydrophobicity Constants by Reversed-Phase High-Performance Liquid Chromatography. J. Med. Chem., 1988, 31, 1923-1933) and the partition coefficient at a given pH (D or logD) were calculated from the equation: log D=a log k′+b where the parameters a and b are predetermined using standard amines. The fitted points of inflection from the sigmoidal DHPLC/pH profiles permit calculation of the pKHPLC(Stylli, C.; Theobald, A. E. Determination of Ionization Constants of Radiopharmaceuticals in Mixed Solvents by HPLC. Appl. Radiat. Isot., 1987, 38, 701-708). The aqueous ionization constants pKa were calculated from the pKHPLC values after correction with a predetermined correction factor obtained using standard amine compounds. Log P values of the neutral complexes were estimated from the respective upper plateau of the sigmoidal log D/pH curve in the alkaline range.

[3] = biological target: T1, σ2 receptor (Rattus norvegicus, UniProt Q5U3Y7); test: σ2 receptor competition binding assay with [3H]-DTG, σ1 masked; settings: apparent Ki, rat liver membranes
T1 construct: Rat liver membranes were prepared from male Sprague-Dawley rat livers as previously described; from tissue; host or cells: male Sprague-Dawley rat liver membranes
T1 sequence (Q5U3Y7 1-176): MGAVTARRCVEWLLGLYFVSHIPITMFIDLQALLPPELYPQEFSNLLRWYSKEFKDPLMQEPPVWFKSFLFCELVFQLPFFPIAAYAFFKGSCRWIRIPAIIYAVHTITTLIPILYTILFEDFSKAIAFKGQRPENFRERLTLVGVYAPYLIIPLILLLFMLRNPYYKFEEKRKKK
Experimental: Rat liver membranes were prepared from male Sprague-Dawley rat livers as previously described (Eur. J. Pharmacol.—Mol. Pharmacol. Sect. 1994, 268, 9-18). The in vitro σ2 receptor binding affinities of rhenium coordinated complexes were determined in a competition assay using rat livers and [^3H]-DTG (31 Ci/mmol, NEN Life Science Inc., Cambridge, Mass.) as radioligand in the presence of 10 μM 1-pyrrolidinylethyl 3,4-dichlorophenylacetate oxalate (ACT915 oxalate) to mask σ1 receptors (Bioorg. & Med. Chem. Lett. 2000, 10, 17-18). Competition assays were performed with twelve concentrations of the nonradioactive rhenium complexes ranging from 1×10^−10 to 1×10^−3 and protein samples (0.15 mg of membrane protein) in a total volume of 0.25 mL of Tris-HCl (50 mM, pH 8.0) for 120 min at 25° C. All other manipulations and data analysis were performed as described vide supra for the σ1-receptor assays.

SMILES	Ki [1] [nM]	k' (pH = 7.4) [2]	k' (Max) [2]	pKa (Corrected) [2]	Ki [3] [nM]
O=C1CN(CCCN2CCC(Cc3ccccc3)CC2)CC[S][Re]2(=[O])[S]CC[N]12 (stereo not shown) [Re-15]	322 ± 61	60	160	8.34	136 ± 22
COc1ccccc1C1CCN(CCCN2CC[S][Re]3(=[O])[S]CC[N]3C(=O)C2)CC1 (stereo not shown) [Re-16]	48 ± 9	57	117	8.09	336 ± 70
